The values below come from patent publication US20190048052A1, “ANTI-MICROBIAL PEPTIDES AND COATINGS” (Board of Regents of the University of Nebraska, priority 2016, published 2019).

Series [1] deals with S. aureus USA300. The series is classed as cell-based, Staphylococcus aureus. The conditions noted are these: for loss in activity compared to the WT: MRSA USA300. Here is the method: (§1) The antimicrobial activity of peptides was evaluated using a standard broth microdilution protocol. In brief, exponential phase bacteria at 10^6 CFU were incubated with serially diluted peptides overnight for ˜20 hours at 37° C. The plates were read on a ChroMate® 4300 Microplate Reader at 630 nm (GMI, Ramsey, Minn.).

The test system of series [2] is E. coli ATCC 25922. Format: cell-based, Escherichia coli. The conditions noted are these: ATCC 25922, 20 h. As to the method: as §1
The subject of series [3] is human red blood cells. Briefly: Hemolytic ability (Example 3). As to conditions: concentration that causes 50% hemolysis. Format: cell-based. As to the method: Hemolytic analysis of selected peptides was performed using an established protocol. Briefly, human blood cells (UNMC Blood Bank) were washed three times with phosphate buffer saline (PBS) and diluted to a 2% solution. After peptide treatment, incubation at 37° C. for one hour, and centrifugation at 13,000 rpm, aliquots of the supernatant were transferred to a fresh 96-well microplate. To assess peptide cytotoxicity, the amount of hemoglobin released was measured at 545 nm. The percent lysis was calculated by assuming 100% release when human blood cells were treated with 1% TRITON™ X-100, and 0% release when incubated with PBS buffer.

Series [4] deals with S. aureus USA300. Format: cell-based, Staphylococcus aureus. Here is the method:
Two types of experiments were conducted to evaluate the anti-biofilm activity of these peptides against S. aureus USA300 grown under a static condition for 24 hours to form established biofilms in presence of tryptic soy broth (TSB). The experiment was set up using a flat bottom, 96-well, polystyrene microtiter plates (Corning, COSTAR). In short, S. aureus USA300 (10^5 CFU/mL) in fresh TSB media was made from an exponentially growing culture. 200 μL of this bacterial culture was added to each well of the microtiter plates. The plates are then incubated at 37° C. for 24 hours to allow biofilm formation. Media was then carefully removed followed by washing with sterile 1×PBS to remove any unattached bacteria. Solution containing μL of 10× peptide solution and 180 μL of fresh TSB were added. The plates were again incubated at 37° C. for another 24 hours. To measure the extent of biofilm disruption by the peptides as a function of biofilm reduction, crystal violet staining was performed. Media was pipetted out and the wells were carefully washed with 200 μL of PBS to remove the loosely attached cells. Subsequently, 200 μL of 99% methanol was added for fixation and the plates were allowed to sit for 15 minutes. The plates were finally aspirated and dried. Lastly, staining was done with 200 μL of 1% crystal violet in water for 5 minutes. Excess stain was gently rinsed off with tap water, and plates were air-dried. Further, stains were solubilized in 200 μL of 33% glacial acetic acid followed by colorimetric measurement at 600 nm on a Chromate® microtiter plate reader. The amounts of biofilm growth with and without compound treatments were calculated.
In addition, live cell contents of the peptide acted biofilms was estimated by XTT [2,3-bis(2-methyloxy-4-nitro-5-sulfophenyl)-2H-tertazolium-5-carboxanilide]assay by following the manufacturer's instructions with modifications. A 10% XTT solution in TSB media was added to each well and the plates were again incubated for 2 hours at 37° C. Absorbance at 450 nm (only media with XTT containing wells served as the blank) was obtained using Chromate® microtiter plate reader. Percentage of biofilm reduction for the peptide was plotted assuming 100% biofilm growth is achieved on the bacterial wells without peptide treatment.

Series [5] has as its system S. aureus USA300. Briefly: Propidium iodide membrane permeation. The series is classed as cell-based, Staphylococcus aureus. As to the method:
Fluorescence spectroscopy was also used to follow bacterial killing. In brief, a serially diluted 10× peptide (10 μL) was made in 96-well coming COSTAR microtiter plates. Propidium iodide (2 μL) was added at 50 μM to each well which was finally incubated with S. aureus USA300 bacteria (88 μL at a final OD600 ˜0.1) with continuous shaking at 100 rpm, 37° C. in a FLUOstar® Omega (BMG LABTECH Inc, NC) microplate reader. The plates were read every 5 minutes for a total duration of 2 hours with excitation and emission wavelengths at 584 nm and 620 nm respectively. Plots were made using averaged readings from duplicated experiments after subtraction of the media control.

In series [6] the test system is E. coli K12. Format: cell-based, Escherichia coli. As to conditions: K12. Here is the method:
(§2) The bacterial strains used here included Gram-positive bacteria Staphylococcus aureus USA300 LAC, Staphylococcus epidermidis 1457, Bacillus subtilis 168, and Gram-negative Escherichia coli K12. Clinical strains of S. aureus, including Mu50, UAMS-1 and Newman, were also evaluated.
(§3) The antimicrobial activity of peptides was evaluated using a standard broth microdilution protocol (Wang, G. (2008) J. Biol. Chem., 283:32637-32643). In brief, exponential phase bacteria at 10^6 CFU were incubated with serially diluted peptides overnight for ˜20 hours at 37° C. The plates were read on a ChroMate® 4300 Microplate Reader at 630 nm (GMI, Ramsey, Minn.). […] In addition, the effects of human serum (up to 10%), pH (6.8, 7.4 and 8.0) and 150 mM sodium chloride (NaCl) on MICs against S. aureus USA300 were also evaluated (Mishra et al. (2015) RSC Advances 5:59758-59769).

Series [7] has as its system S. epidermidis 1457. The series is classed as cell-based, Staphylococcus epidermidis. As to the method: as §2, §3
For series [8], the system named is B. subtilis 168. Format: cell-based, Bacillus subtilis. As to the method:
as §2, §3

Series [9] relates to S. aureus USA300. Format: cell-based, Staphylococcus aureus. As to the method: as §2, §3
The source holds these as a separate data set.

Series [10] has as its system S. aureus USA300. The series is classed as cell-based, Staphylococcus aureus. As to conditions: USA300. As to the method:
The minimal bactericidal concentration (MBC) was determined by plating 50 μl of the content in the clear wells of the above MIC assays. MBC was determined on the petri dishes without bacterial colony formation after overnight growth (Wang et al. (2012) Biochemistry 51:653-664).

Molecules are shown by their SMILES. Converted amounts (≈) assume the structure as drawn. Read-outs that look alike come from different tables or passages of the source. Residues, ends and D or L forms follow the SMILES beside them. A value given as a limit tells only on which side of the number the result lay.

For `CC[C@H](C)[C@H](NC(=O)[C@H](CCCNC(=N)N)NC(=O)[C@H](CCCNC(=N)N)NC(=O)[C@H](CC(C)C)NC(=O)[C@H](Cc1c[nH]c2ccccc12)NC(=O)[C@H](CCCNC(=N)N)NC(=O)[C@@H](N)Cc1c[nH]c2ccccc12)C(=O)N[C@@H](Cc1c[nH]c2ccccc12)C(N)=O` [Peptide W2R, WRWLRRIW] (H-WRWLRRIW-NH2; N-terminus assumed), in [1] (USA300, 20 h), the “S. aureus (MIC)” value came to 6.2 µM. Moreover, in series [2], the “E. coli (MIC)” value turned out to be 25 µM. In [3], the HL50 came to 100 µM. In series [4] (12.5 μM), the “killing in preformed biofilms (XTT)” value turned out to be 80%.
`CC[C@H](C)[C@H](NC(=O)[C@H](CCCNC(=N)N)NC(=O)[C@H](CCCNC(=N)N)NC(=O)[C@H](CC(C)C)NC(=O)[C@H](CCCNC(=N)N)NC(=O)[C@H](Cc1c[nH]c2ccccc12)NC(=O)[C@@H](N)Cc1c[nH]c2ccccc12)C(=O)N[C@@H](Cc1c[nH]c2ccccc12)C(N)=O` [Peptide W3R, WWRLRRIW] (H-WWRLRRIW-NH2; N-terminus assumed): in series [1], the “loss in activity compared to the WT” value is on record as “four-fold”. The “S. aureus (MIC)” value in series [1] (S. aureus USA300) is 12.5 µM. In series [2], the “E. coli (MIC)” value came out at 25 µM. The HL50 in series [3] is above 200 µM. In series [4] (25 μM), the “killing in preformed biofilms (XTT)” value is “neither W1R nor W3R was able to kill”.
As to `CCCCCCCCCC(=O)N[C@@H](Cc1c[nH]c2ccccc12)C(=O)N[C@H](CC(N)=O)C(=O)N[C@@H](CC(=O)O)C(=O)N[C@@H]1C(=O)NCC(=O)N[C@@H](CCCN)C(=O)N[C@@H](CC(=O)O)C(=O)N[C@H](C)C(=O)N[C@@H](CC(=O)O)C(=O)NCC(=O)N[C@H](CO)C(=O)N[C@@H]([C@H](C)CC(=O)O)C(=O)N[C@@H](CC(=O)c2ccccc2N)C(=O)O[C@@H]1C` [daptomycin, reference compound], the “propidium iodide fluorescence change after treatment” value in series [5] is “rapid increase in fluorescence”.
On to `CC[C@H](C)[C@H](NC(=O)[C@H](CCCNC(=N)N)NC(=O)[C@H](CCCNC(=N)N)NC(=O)[C@H](CC(C)C)NC(=O)[C@H](Cc1c[nH]c2ccccc12)NC(=O)[C@H](Cc1c[nH]c2ccccc12)NC(=O)[C@@H](N)CCCNC(=N)N)C(=O)N[C@@H](Cc1c[nH]c2ccccc12)C(N)=O` [Peptide W1R, RWWLRRIW] (H-RWWLRRIW-NH2; N-terminus assumed), for which, in series [1], the “loss in activity compared to the WT” value is recorded as “four-fold”. In addition, the “S. aureus (MIC)” value in series [1] (S. aureus USA300) came out at 12.5 µM. Moreover, in [2], the “E. coli (MIC)” value came out at 25 µM. The compound further registered an HL50 in [3] above 200 µM. In addition, the “killing in preformed biofilms (XTT)” value in series [4] (25 μM) is recorded as “neither W1R nor W3R was able to kill”.
With `CC[C@H](C)[C@H](NC(=O)[C@H](CCCNC(=N)N)NC(=O)[C@H](CCCNC(=N)N)NC(=O)[C@H](CC(C)C)NC(=O)[C@H](Cc1c[nH]c2ccccc12)NC(=O)[C@H](Cc1c[nH]c2ccccc12)NC(=O)[C@@H](N)Cc1c[nH]c2ccccc12)C(=O)N[C@@H](CCCNC(=N)N)C(N)=O` [Peptide W8R, WWWLRRIR] (H-WWWLRRIR-NH2; N-terminus assumed), the “loss in activity compared to the WT” value in series [1] is listed as “four-fold”. The “S. aureus (MIC)” value in series [1] (S. aureus USA300) was 12.5 µM. The “E. coli (MIC)” value in series [2] came out at 25 µM. Besides, in series [3], the HL50 is above 200 µM. Moreover, the “killing in preformed biofilms (XTT)” value in series [4] (12.5 μM) came out at 20%.
Take `CN[C@H](CC(C)C)C(=O)N[C@H]1C(=O)N[C@@H](CC(N)=O)C(=O)N[C@H]2C(=O)N[C@H]3C(=O)N[C@H](C(=O)N[C@H](C(=O)O)c4cc(O)cc(O)c4-c4cc3ccc4O)[C@H](O)c3ccc(c(Cl)c3)Oc3cc2cc(c3O[C@@H]2O[C@H](CO)[C@@H](O)[C@H](O)[C@H]2O[C@H]2C[C@](C)(N)[C@H](O)[C@H](C)O2)Oc2ccc(cc2Cl)[C@H]1O` [vancomycin, reference compound]: the “propidium iodide fluorescence change after treatment” value in [5] is “no increase in fluorescence”.
Take `CC[C@H](C)[C@H](NC(=O)[C@H](CCCNC(=N)N)NC(=O)[C@H](CO)NC(=O)[C@H](CC(C)C)NC(=O)[C@H](Cc1c[nH]c2ccccc12)NC(=O)[C@H](Cc1c[nH]c2ccccc12)NC(=O)[C@@H](N)Cc1c[nH]c2ccccc12)C(=O)N[C@@H](Cc1c[nH]c2ccccc12)C(N)=O` [TetraF2W, WWWLSRIW] (H-WWWLSRIW-NH2; N-terminus and C-terminus assumed): the “MIC E. coli K12” value in series [6] was above 100 µM. For the same compound, the “MIC S. epidermidis 1457” value in series [7] was above 50 µM. In series [8], the “MIC B. subtilis 168” value stood at 6.2 µM (≈ 7.64 µg/mL). Moreover, in series [9] (S. aureus USA300), the “fold more potent than temporin-SHf (anti-MRSA)” value was 4-8 fold. Also, in [9] (USA300), the “MIC S. aureus USA300” value lay within 3.1 to 6.2 µM. The “MBC S. aureus USA300” value in series [10] came to 6.2 µM (≈ 7.64 µg/mL).
